# Data: ChEMBL document CHEMBL1126502, “Enhancement of binding of quaternary ammonium derivatives of chlorpromaxine to dopamine D-2 receptors by the addition of a H-bonding group” (Bioorg Med Chem Lett, 1993)
# Biological target: D(2) dopamine receptor (Rattus norvegicus, UniProt P61169)
# Assay: Tested for Competitive binding inhibition of [3H]spiperone to Dopamine receptor D2 in rat striatal membrane.
# Format: cell membranes
# D(2) dopamine receptor, sequence (P61169 whole entry): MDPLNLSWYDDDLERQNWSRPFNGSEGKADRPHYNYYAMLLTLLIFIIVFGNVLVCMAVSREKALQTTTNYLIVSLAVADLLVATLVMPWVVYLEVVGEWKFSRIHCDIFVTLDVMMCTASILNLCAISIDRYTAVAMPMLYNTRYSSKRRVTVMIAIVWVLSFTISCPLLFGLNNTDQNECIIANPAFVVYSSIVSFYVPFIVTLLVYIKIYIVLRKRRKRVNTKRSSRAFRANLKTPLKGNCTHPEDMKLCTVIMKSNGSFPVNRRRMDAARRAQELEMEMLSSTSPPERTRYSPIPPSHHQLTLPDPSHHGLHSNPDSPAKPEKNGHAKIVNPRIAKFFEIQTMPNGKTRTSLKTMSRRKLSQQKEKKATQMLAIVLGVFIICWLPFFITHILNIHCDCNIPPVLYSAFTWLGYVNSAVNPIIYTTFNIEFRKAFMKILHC
row,Ki,Compound
1,0.82 µM,C[N+](C)(N)CCCN1c2ccccc2Sc2ccc(Cl)cc21
2,4.88 µM,C[N+](C)(C)NCCN1c2ccccc2Sc2ccc(Cl)cc21
3,8.57 µM,C[N+](C)(C)CCCN1c2ccccc2Sc2ccc(Cl)cc21
